Test results taken from paper PMC9333195, “Discovery of 2-Phenylquinoline-4-Carboxylic Acid Derivatives as Novel Histone Deacetylase Inhibitors” (Frontiers in Chemistry, 2022).

What was measured:
K562 cells = assay: CCK-8 antiproliferative assay, K562; conditions: for inhibition at 2 µM: Homo sapiens, K562, read-out: K562 percentage inhibitory rate; for K562 percentage inhibitory rate: 2.0 µM compound, K562 cells, CCK-8, mean of three experiments
Protocol: The proliferation of cancer cells was tested by CCK-8 assay. Briefly, cells were seeded in a 96-well plate with about 5 × 10^3 cells in each well. In the K652 cell screening, cells were treated with 2.0 μM of tested compounds. […] The light absorbance at 450 nm was measured by using an Opsys microplate reader (Dynex Technologies, Chantilly, VA, United States).

[1] = tested on: Hela nucleus extract containing a mixture of HDAC isoforms; assay: In vitro HDAC inhibitory assay, HeLa cell nuclear extract screening at 2 µM; assay type: biochemical; conditions: 2.0 µM compound, mean of three experiments
Protocol: The HDAC enzyme inhibitory activities of synthesized compounds were evaluated against Hela nucleus extract containing a mixture of HDAC isoforms. Percentage inhibitory rate (PIR) was calculated to determine the activity of tested compounds (Table 1).
All HDAC enzymes were purchased from BPS Bioscience. […] The reaction was terminated by adding 100 μl of imaging agent containing trypsin and trichostatin A (TSA). After standing for 20 min, the fluorescence intensity was measured at the excitation and emission wavelengths of 360 and 460 nm with a microplate reader. The inhibition rate was calculated from the fluorescence intensity readings of the test wells relative to the control wells, and the IC50 curve and value were determined by GraphPad Prism 6.0 software.

melting point	Compound	inhibition at 2 µM (K562 cells)	HDACs percentage inhibitory rate (PIR) [1]	K562 percentage inhibitory rate (K562 cells)
200.6 to 201.2 °C	CN(C)c1ccc(-c2cc(C(=O)N3CCN(c4ccc(C(=O)NO)cc4)CC3)c3ccccc3n2)cc1 [Compound D18, 4-(4-(2-(4-(Dimethylamino)Phenyl)Quinoline-4-Carbonyl)Piperazin-1-yl)-N-Hydroxybenzamide]	48.3 ± 0.31%	48.37 ± 0.35%	–
163.5 to 164.8 °C	O=C(NO)c1ccc(N2CCN(C(=O)c3cc(-c4ccc(F)cc4)nc4ccccc34)CC2)cc1 [Compound D4, 4-(4-(2-(4-Fluorophenyl)Quinoline-4-Carbonyl)Piperazin-1-yl)-N-Hydroxybenzamide]	32.43 ± 0.2%	47.79 ± 1.34%	–
163.5 to 164.2 °C	O=C(NO)c1ccc(N2CCN(C(=O)c3cc(-c4ccc(NC(=O)c5ccccc5F)cc4)nc4ccccc34)CC2)cc1 [Compound D22, 2-Fluoro-N-(4-(4-(4-(4-(Hydroxycarbamoyl)Phenyl)Piperazine-1-Carbonyl)Quinolin-2-yl)Phenyl)Benzamide]	65.1 ± 1.34%	56.86 ± 1.79%	–
224 to 224.9 °C	COc1ccccc1-c1cc(C(=O)N2CCN(c3ccc(C(=O)NO)cc3)CC2)c2ccccc2n1 [Compound D13, N-Hydroxy-4-(4-(2-(2-Methoxyphenyl)Quinoline-4-Carbonyl)Piperazin-1-yl)Benzamide]	43.81 ± 0.26%	54.24 ± 0.18%	–
173.9 to 174.8 °C	O=C(NO)c1ccc(N2CCN(C(=O)c3cc(-c4ccc(NC(=O)c5ccccc5)cc4)nc4ccccc34)CC2)cc1 [Compound D19, 4-(4-(2-(4-Benzamidophenyl)Quinoline-4-Carbonyl)Piperazin-1-yl)-N-Hydroxybenzamide]	59.19 ± 0.35%	45.31 ± 0.68%	–
221.8 to 222 °C	O=C(NO)c1ccc(N2CCN(C(=O)c3cc(-c4cc(F)cc(F)c4)nc4ccccc34)CC2)cc1 [Compound D12, 4-(4-(2-(3,5-Difluorophenyl)Quinoline-4-Carbonyl)Piperazin-1-yl)-N-Hydroxybenzamide]	51.8 ± 1.35%	74.91 ± 0.35%	–
196.9 to 198 °C	O=C(NO)c1ccc(N2CCN(C(=O)c3cc(-c4cc(F)ccc4F)nc4ccccc34)CC2)cc1 [Compound D27, 4-(4-(2-(2,5-Difluorophenyl)Quinoline-4-Carbonyl)Piperazin-1-yl)-N-Hydroxybenzamide]	63.79 ± 0.13%	59.30 ± 0.74%	–
170.5 to 170.8 °C	O=C(NO)c1ccc(N2CCN(C(=O)c3cc(-c4ccc(NC(=O)c5cccc(Br)c5)cc4)nc4ccccc34)CC2)cc1 [Compound D21, 3-Bromo-N-(4-(4-(4-(4-(Hydroxycarbamoyl)Phenyl)Piperazine-1-Carbonyl)Quinolin-2-yl)Phenyl)Benzamide]	47.6 ± 0.92%	50.26 ± 1.41%	–
–	N-Hydroxy-4-(4-(2-(o-Tolyl)Quinoline-4-Carbonyl)Piperazin-1-yl)Benzamide [Compound D16]	–	49.04 ± 31.22%	15.26 ± 0.33%
228.1 to 229.2 °C	O=C(NO)c1ccc(N2CCN(C(=O)c3cc(-c4ccc(Cl)cc4)nc4ccccc34)CC2)cc1 [Compound D3, 4-(4-(2-(4-Chlorophenyl)Quinoline-4-Carbonyl)Piperazin-1-yl)-N-Hydroxybenzamide]	46.4 ± 0.53%	49.43 ± 3.73%	–
199.2 to 199.7 °C	Cc1cccc(-c2cc(C(=O)N3CCN(c4ccc(C(=O)NO)cc4)CC3)c3ccccc3n2)c1 [Compound D9, N-Hydroxy-4-(4-(2-(m-Tolyl)Quinoline-4-Carbonyl)Piperazin-1-yl)Benzamide]	45.81 ± 0.33%	49.33 ± 0.82%	–
175.3 to 176.3 °C	O=C(NO)c1ccc(N2CCN(C(=O)c3cc(-c4ccc(NC(=O)c5ccc(F)cc5F)cc4)nc4ccccc34)CC2)cc1 [Compound D24, 2,4-Difluoro-N-(4-(4-(4-(4-(Hydroxycarbamoyl)Phenyl)Piperazine-1-Carbonyl)Quinolin-2-yl)Phenyl)Benzamide]	31.1 ± 0.54%	66.16 ± 1.57%	–
179.8 to 180.9 °C	COc1cccc(-c2cc(C(=O)N3CCN(c4ccc(C(=O)NO)cc4)CC3)c3ccccc3n2)c1 [Compound D11, N-Hydroxy-4-(4-(2-(3-Methoxyphenyl)Quinoline-4-Carbonyl)Piperazin-1-yl)Benzamide]	46.09 ± 0.43%	63.49 ± 4.61%	–
172.5 to 173.3 °C	O=C(NO)c1ccc(N2CCN(C(=O)c3cc(-c4ccccc4F)nc4ccccc34)CC2)cc1 [Compound D10, 4-(4-(2-(2-Fluorophenyl)Quinoline-4-Carbonyl)Piperazin-1-yl)-N-Hydroxybenzamide]	40.9 ± 1.22%	58.52 ± 0.64%	–
232.6 to 232.9 °C	O=C(NO)c1ccc(N2CCN(C(=O)c3cc(-c4ccc(NC(=O)c5cccc(F)c5)cc4)nc4ccccc34)CC2)cc1 [Compound D26, 3-Fluoro-N-(4-(4-(4-(4-(Hydroxycarbamoyl)Phenyl)Piperazine-1-Carbonyl)Quinolin-2-yl)Phenyl)Benzamide]	43.1 ± 0.64%	49.99 ± 0.32%	–
–	4-(4-(2-(4-Fluoro-3-Methylphenyl)Quinoline-4-Carbonyl)Piperazin-1-yl)-N-Hydroxybenzamide [Compound D17]	–	47.41 ± 1.03%	41.91 ± 0.13%
–	3,5-Difluoro-N-(4-(4-(4-(4-(Hydroxycarbamoyl)Phenyl)Piperazine-1-Carbonyl)Quinolin-2-yl)Phenyl)Benzamide [Compound D25]	–	54.74 ± 1.41%	37.64 ± 0.13%
177.2 to 179.6 °C	CSc1ccc(-c2cc(C(=O)N3CCN(c4ccc(C(=O)NO)cc4)CC3)c3ccccc3n2)cc1 [Compound D5, N-Hydroxy-4-(4-(2-(4-(Methylthio)Phenyl)Quinoline-4-Carbonyl)Piperazin-1-yl)Benzamide]	47.4 ± 1.11%	50.93 ± 0.93%	–
231.7 to 232.8 °C	O=C(NO)c1ccc(N2CCN(C(=O)c3cc(-c4ccc(Br)cc4)nc4ccccc34)CC2)cc1 [Compound D2, 4-(4-(2-(4-Bromophenyl)Quinoline-4-Carbonyl)Piperazin-1-yl)-N-Hydroxybenzamide]	48.8 ± 1.32%	59.50 ± 0.35%	–
225 to 226.3 °C	O=C(NO)c1ccc(N2CCN(C(=O)c3cc(-c4cccc(F)c4)nc4ccccc34)CC2)cc1 [Compound D15, 4-(4-(2-(3-Fluorophenyl)Quinoline-4-Carbonyl)Piperazin-1-yl)-N-Hydroxybenzamide]	26.2 ± 0.62%	58.80 ± 2.95%	–
212.7 to 213.9 °C	O=C(NO)c1ccc(N2CCN(C(=O)c3cc(-c4ccc(C(F)(F)F)cc4)nc4ccccc34)CC2)cc1 [Compound D7, N-Hydroxy-4-(4-(2-(4-(Trifluoromethyl)Phenyl)Quinoline-4-Carbonyl)Piperazin-1-yl)Benzamide]	40.3 ± 1.2%	52.60 ± 2.37%	–
178.3 to 180.3 °C	O=C(NO)c1ccc(N2CCN(C(=O)c3cc(-c4ccc(NC(=O)c5ccc(F)cc5)cc4)nc4ccccc34)CC2)cc1 [Compound D20, 4-Fluoro-N-(4-(4-(4-(4-(Hydroxycarbamoyl)Phenyl)Piperazine-1-Carbonyl)Quinolin-2-yl)Phenyl)Benzamide]	45.9 ± 1.34%	48.46 ± 0.68%	–
184.3 to 186.8 °C	COc1ccc(-c2cc(C(=O)N3CCN(c4ccc(C(=O)NO)cc4)CC3)c3ccccc3n2)cc1 [Compound D6, N-Hydroxy-4-(4-(2-(4-Methoxyphenyl)Quinoline-4-Carbonyl)Piperazin-1-yl)Benzamide]	51.55 ± 0.25%	52.31 ± 3.09%	–
167.2 to 167.8 °C	O=C(NO)c1ccc(N2CCN(C(=O)c3cc(-c4ccc(NC(=O)c5ccccc5Cl)cc4)nc4ccccc34)CC2)cc1 [Compound D23, 2-Chloro-N-(4-(4-(4-(4-(Hydroxycarbamoyl)Phenyl)Piperazine-1-Carbonyl)Quinolin-2-yl)Phenyl)Benzamide]	61.92 ± 0.42%	62.91 ± 2.26%	–
213.8 to 214.8 °C	O=C(NO)c1ccc(N2CCN(C(=O)c3cc(-c4ccccc4)nc4ccccc34)CC2)cc1 [Compound D1, N-Hydroxy-4-(4-(2-Phenylquinoline-4-Carbonyl)Piperazin-1-yl)Benzamide]	46.58 ± 0.35%	57.96 ± 0.43%	–
207.1 to 208.9 °C	O=C(NO)c1ccc(N2CCN(C(=O)c3cc(-c4cccc(Cl)c4)nc4ccccc34)CC2)cc1 [Compound D8, 4-(4-(2-(3-Chlorophenyl)Quinoline-4-Carbonyl)Piperazin-1-yl)-N-Hydroxybenzamide]	42.9 ± 1.02%	51.81 ± 4.07%	–
